Drawing on patent US12139499B2, “Heteroaryl compounds for treating Huntington's disease” (PTC THERAPEUTICS, INC., priority 2018, dated 2024), this text covers IC50 for 32 molecules.

The structures appear in SMILES notation.

The test system of the assay is Endogenous Huntingtin Protein. Briefly: Endogenous Huntingtin Protein Assay (ELISA-based MSD electrochemiluminescence). The class given is cell-based. The settings on record: Table 1. The essentials: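 Sandwich MSD electrochemiluminescence immunoassay. Capture used MW1 (expanded polyglutamine) or MAB2166 antibody coated at 1 μg/mL overnight at 4 °C. Samples were bound overnight at 4 °C, then a rabbit monoclonal detection antibody and SULFO-TAG anti-rabbit, each at 0.25 μg/mL, were applied for 1 h at room temperature.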
`Cc1cc(-c2ncc3nc(N(C)C4CC(C)(C)NC(C)(C)C4)sc3n2)cc2cn(C)nc12` [Compound 122, 5-(2,7-dimethyl-2H-indazol-5-yl)-N-methyl-N-(2,2,6,6-tetramethylpiperidin-4-yl)[1,3]thiazolo[5,4-d]pyrimidin-2-amine] registered an IC50 of 100 to 500 nM. Next, `Cc1cn2cc(-c3cc4sc(N(C)C5CCNCC5)nc4cn3)cc(F)c2n1` [Compound 215, 6-(8-fluoro-2-methylimidazo[1,2-a]pyridin-6-yl)-N-methyl-N-(piperidin-4-yl)[1,3]thiazolo[4,5-c]pyridin-2-amine]: not above 100 nM; `Cc1cn2cc(-c3cc4sc(N(C)C5CC6CCCC(C5)N6)nc4cn3)cc(C#N)c2n1` (centres unmarked) [Compound 251, 6-{2-[9-azabicyclo[3.3.1]non-3-yl(methyl)amino][1,3]thiazolo[4,5-c]pyridin-6-yl}-2-methylimidazo[1,2-a]pyridine-8-carbonitrile]: not above 100 nM. With `Cc1cn2cc(-c3cc(F)c4nc(OC5CCNCC5)sc4c3)cc(C#N)c2n1` [Compound 317, 6-{4-fluoro-2-[(piperidin-4-yl)oxy]-1,3-benzothiazol-6-yl}-2-methylimidazo[1,2-a]pyridine-8-carbonitrile] the figure was not above 100 nM; with `Cn1cc2cc(-c3cc4sc(NC5CC(C)(C)NC(C)(C)C5)nc4cn3)cc(F)c2n1` [Compound 232, 6-(7-fluoro-2-methyl-2H-indazol-5-yl)-N-(2,2,6,6-tetramethylpiperidin-4-yl)[1,3]thiazolo[4,5-c]pyridin-2-amine], not above 100 nM. With `CN1CCC(N(C)c2nc3nnc(-c4ccc(-c5c[nH]nc5F)cc4O)cc3s2)CC1` [Compound 332, 5-(3-fluoro-1H-pyrazol-4-yl)-2-{6-[methyl(1-methylpiperidin-4-yl)amino][1,3]thiazolo[4,5-c]pyridazin-3-yl}phenol] the figure was not above 100 nM. As for `Cc1cn2nc(-c3cc(F)c4nc(N(C)C5CC6CCC(C5)N6)sc4c3)cc(C)c2n1` (stereo not drawn) [Compound 192, N-[(3-exo)-8-azabicyclo[3.2.1]oct-3-yl]-6-(2,8-dimethylimidazo[1,2-b]pyridazin-6-yl)-4-fluoro-N-methyl-1,3-benzothiazol-2-amine], the IC50 was not above 100 nM. `CNc1cc(-c2cc(F)c3nc(C4CCNCC4)sc3c2)nn2cc(C)nc12` [Compound 167, 6-[4-fluoro-2-(piperidin-4-yl)-1,3-benzothiazol-6-yl]-N,2-dimethylimidazo[1,2-b]pyridazin-8-amine] yielded an IC50 not above 100 nM. With `Cc1cn2cc(-c3cc4sc(N(C)C5CC6(C)CCC(C)(C5)N6)nc4cn3)nc2c(C)n1` [Compound 322, N-[(1R,3s,5S)-1,5-dimethyl-8-azabicyclo[3.2.1]octan-3-yl]-6-(6,8-dimethylimidazo[1,2-a]pyrazin-2-yl)-N-methyl[1,3]thiazolo[4,5-c]pyridin-2-amine] the figure was not above 100 nM; with `CCN(c1nc2cnc(-c3cc(C#N)c4nc(C)cn4c3)nc2s1)C1CC(C)(C)NC(C)(C)C1` [Compound 242, 6-{2-[ethyl(2,2,6,6-tetramethylpiperidin-4-yl)amino][1,3]thiazolo[5,4-d]pyrimidin-5-yl)-2-methylimidazo[1,2-a]pyridine-8-carbonitrile], 100 to 500 nM; with `Cc1cn2cc(-c3cc4sc(N(C)C5CC(C)(C)NC(C)(C)C5)nc4cn3)ccc2n1` [Compound 87, N-methyl-6-(2-methylimidazo[1,2-a]pyridin-6-yl)-N-(2,2,6,6-tetramethylpiperidin-4-yl)[1,3]thiazolo[4,5-c]pyridin-2-amine], not above 100 nM. With `Cc1cn2cc(-c3cc4sc(N(C)C5CC6CCCC(C5)N6)nc4cn3)ccc2n1` (centres unmarked) [Compound 260, N-(9-azabicyclo[3.3.1]non-3-yl)-N-methyl-6-(2-methylimidazo[1,2-a]pyridin-6-yl)[1,3]thiazolo[4,5-c]pyridin-2-amine], the IC50 is not above 100 nM.

The molecule `Cc1cc2nc(-c3cc(F)c4nc(C5CCNCC5)sc4c3)ccn2n1` [Compound 249, 5-[4-fluoro-2-(piperidin-4-yl)-1,3-benzothiazol-6-yl]-2-methylpyrazolo[1,5-a]pyrimidine] showed a half-inhibitory concentration (IC50) not above 100 nM. With `CN1CC[C@@H]2CCN(c3nc4nnc(-c5ccc(-c6cn[nH]c6)cc5O)cc4s3)[C@@H]2C1` [Compound 369, 2-{6-[(3aR,7aS)-6-methyloctahydro-1H-pyrrolo[2,3-c]pyridin-1-yl][1,3]thiazolo[4,5-c]pyridazin-3-yl}-5-(1H-pyrazol-4-yl)phenol] the figure was 100 to 500 nM. Turning to `Cn1cc2cc(-c3ccc4nc(C5(F)CCNCC5)sc4c3)ccc2n1` [Compound 41, 2-(4-fluoropiperidin-4-yl)-6-(2-methyl-2H-indazol-5-yl)-1,3-benzothiazole], the IC50 was 1000 to 3000 nM. Take `Cc1cn2nc(-c3cnc4nc(C5CCNCC5)sc4c3)cc(C)c2n1` [Compound 61, 6-(2,8-dimethylimidazo[1,2-b]pyridazin-6-yl)-2-(piperidin-4-yl)[1,3]thiazolo[4,5-b]pyridine]: the IC50 was not above 100 nM. With `Cc1cn2cc(-c3ccc4nc(N(C)C5CC6(C)CCC(C)(C5)N6)sc4n3)cc(F)c2n1` [Compound 292, N-[(1R,3s,5S)-1,5-dimethyl-8-azabicyclo[3.2.1]octan-3-yl]-5-(8-fluoro-2-methylimidazo[1,2-a]pyridin-6-yl)-N-methyl[1,3]thiazolo[5,4-b]pyridin-2-amine] the figure was not above 100 nM; with `CN(c1nc2ccc(-c3cc(C#N)c4nn(C)cc4c3)nc2s1)C1CC2CCCC(C1)N2` (stereo not drawn) [Compound 281, 5-{2-[(3-exo)-9-azabicyclo[3.3.1]non-3-yl(methyl)amino][1,3]thiazolo[5,4-b]pyridin-5-yl}-2-methyl-2H-indazole-7-carbonitrile], not above 100 nM; with `Cc1cn2nc(-c3cc4sc(N(C)C5CC(C)(C)NC(C)(C)C5)nc4cn3)ccc2n1` [Compound 89, N-methyl-6-(2-methylimidazo[1,2-b]pyridazin-6-yl)-N-(2,2,6,6-tetramethylpiperidin-4-yl)[1,3]thiazolo[4,5-c]pyridin-2-amine], 500 to 1000 nM. With `CC1CC(N(C)c2nc3ccc(-c4ccc5nn(C)cc5c4)cc3s2)CCN1` (centres unmarked) [Compound 81, N-methyl-6-(2-methyl-2H-indazol-5-yl)-N-(2-methylpiperidin-4-yl)-1,3-benzothiazol-2-amine] the figure was 100 to 500 nM; with `Cc1cn2cc(-c3ncc4nc(N(C)C5CC(C)(C)NC(C)(C)C5)sc4n3)cc(F)c2n1` [Compound 171, 5-(8-fluoro-2-methylimidazo[1,2-a]pyridin-6-yl)-N-methyl-N-(2,2,6,6-tetramethylpiperidin-4-yl)[1,3]thiazolo[5,4-d]pyrimidin-2-amine], not above 100 nM.

Consider `Cn1cc2cc(-c3cc4sc(NC5CC(C)(C)NC(C)(C)C5)nc4cn3)cc(C#N)c2n1` [Compound 233, 2-methyl-5-{2-[(2,2,6,6-tetramethylpiperidin-4-yl)amino][1,3]thiazolo[4,5-c]pyridin-6-yl}-2H-indazole-7-carbonitrile], for which the IC50 is not above 100 nM. Next, `Cn1cc2cc(-c3cc4sc(C5CCNCC5)nc4cn3)cc(F)c2n1` [Compound 76, 6-(7-fluoro-2-methyl-2H-indazol-5-yl)-2-(piperidin-4-yl)[1,3]thiazolo[4,5-c]pyridine]: 100 to 500 nM; `CN(c1nc2nnc(-c3ccc(-c4cn[nH]c4)cc3O)cc2s1)[C@H]1CCN[C@H](CO)C1` [Compound 371, 2-(6-{[(2S,4S)-2-(hydroxymethyl)piperidin-4-yl](methyl)amino}[1,3]thiazolo[4,5-c]pyridazin-3-yl)-5-(1H-pyrazol-4-yl)phenol]: not above 100 nM.

Molecule `Cc1cn2cc(-c3cc4sc(OC5CCNCC5)nc4cn3)cc(C#N)c2n1` [Compound 313, 2-methyl-6-{2-[(piperidin-4-yl)oxy][1,3]thiazolo[4,5-c]pyridin-6-yl}imidazo[1,2-a]pyridine-8-carbonitrile] displayed an IC50 of 100 to 500 nM. The molecule `Cc1cc(-c2nc3ccc(C4=CCNCC4)cc3s2)cc2cn(C)nc12` [Compound 49, 2-(2,7-dimethyl-2H-indazol-5-yl)-6-(1,2,3,6-tetrahydropyridin-4-yl)-1,3-benzothiazole] showed an IC50 of 100 to 500 nM.

The molecule `Cc1cc(-c2cc3sc(N(C)C4CC(C)(C)NC(C)(C)C4)nc3nn2)cc2cn(C)nc12` [Compound 118, 3-(2,7-dimethyl-2H-indazol-5-yl)-N-methyl-N-(2,2,6,6-tetramethylpiperidin-4-yl)[1,3]thiazolo[4,5-c]pyridazin-6-amine] returned an IC50 of 100 to 500 nM.

Molecule `Cn1cc2cc(-c3cc4sc(NC5CC6CCC(C5)N6)nc4cn3)cc(C#N)c2n1` (stereo not drawn) [Compound 213, 5-{2-[(3-exo)-8-azabicyclo[3.2.1]oct-3-ylamino][1,3]thiazolo[4,5-c]pyridin-6-yl}-2-methyl-2H-indazole-7-carbonitrile] had an IC50 not above 100 nM. With `CN(c1nc2nnc(-c3ccc(-c4cn[nH]c4)cc3O)cc2s1)C1CCN(CCF)CC1` [Compound 384, 2-(6-{[1-(2-fluoroethyl)piperidin-4-yl](methyl)amino}[1,3]thiazolo[4,5-c]pyridazin-3-yl)-5-(1H-pyrazol-4-yl)phenol] the figure was not above 100 nM; with `Cc1cn2nc(-c3cc(F)c4nc(N(C)C5CNC5)sc4c3)cc(C)c2n1` [Compound 248, N-(azetidin-3-yl)-6-(2,8-dimethylimidazo[1,2-b]pyridazin-6-yl)-4-fluoro-N-methyl-1,3-benzothiazol-2-amine], 100 to 500 nM. For the molecule `Cc1cn2cc(-c3cc4sc(NC5CC(C)(C)NC(C)(C)C5)nc4cn3)cc(F)c2n1` [Compound 234, 6-(8-fluoro-2-methylimidazo[1,2-a]pyridin-6-yl)-N-(2,2,6,6-tetramethylpiperidin-4-yl)[1,3]thiazolo[4,5-c]pyridin-2-amine], the IC50 was not above 100 nM. With `Cn1cc2cc(-c3cc4sc(C5CCNCC5)nc4cn3)cc(C(F)(F)F)c2n1` [Compound 60, 6-[2-methyl-7-(trifluoromethyl)-2H-indazol-5-yl]-2-(piperidin-4-yl)[1,3]thiazolo[4,5-c]pyridine] the figure was 100 to 500 nM.
